Measured values published in US20120189546A1, “Radiolabelling Method Using Cycloalkyl Groups” (BAYER PHARMA AKTIENGESELLSCHAFT, priority 2009, published 2012).
“And” between values parts separate entries of the source, which are not always exact repeats. Identical values can stand only once.

Legend:
[1] = test system: A549 cells; assay: Cell uptake of [18F] compound 32b into A549 cells; assay type: cell-based, human
Description: We studied the uptake of the radiolabeled [^18F] compound 32b into A549 cells, 90000 A549 cells were seeded per cavity of a 48 well incubation plate (Becton Dickinson; Cat. 353078) and incubated for 2 days in RPMI 1640 with GlutaMAX (Invitrogen; Cat. 31331) medium supplemented with 10% FCS in an incubator (37° C., 5% CO2). Cells were washed once with PBS and then incubated for 10-30 minutes at 37° C. in PBS with 0.25 MBq of compound 32b ([^18F] labeled). After incubation, the cells were washed once with cold PBS, lysed with 1M NaOH, and finally lysates were measured in a gamma counter.

[2] = target: T1, LAT1 (Homo sapiens, UniProt Q01650); assay: [H-3]-D-Tyrosine efflux experiment in A549 cells (LAT1 substrate test); assay type: cell-based; conditions: A549 cells preloaded with [H-3]-D-Tyrosine, 100 μM cold compound, 0.7% without compound
T1 construct: endogenous in cells; host or cells: A549 human lung carcinoma cells
Description: To study if the compounds are transported by LAT1, the cells were incubated with 37 kBq of the radiotracer [H-3]-D-Tyrosine and was incubated with cells at 37° C. in a humidified atmosphere containing 5% CO2 for 30 min. Then the cells were washed with PBS and fresh assay buffer was added to the cells containing 100 μM concentration of cold compound and the cells were incubated for another 30 min. To stop tracer efflux the incubation buffer was removed after 30 min, the cells were washed and lysed with 1 M sodium hydroxide. Subsequently the amount of radioactivity in the cell lysate was determined in a scintillation counter.
(§1) Aliquots of the applied tracer amount were measured in a gamma counter to determine the total amount in counts per minute (cpm) together with the samples to correct for tracer decay. Cell numbers per well were determined after detaching cells by trypsinization in 3 wells prior to start of the assay and counted in cell chamber under a microscope. The mean of cells was calculated. To compare tracer uptake between different studies the cell number was normalized to 100,000 cells.

[3] = test system: A549 human lung carcinoma cell line; assay: [H-3]-D-Tyrosine uptake competition in A549 cells; assay type: cell-based; conditions: 30 min, 100 μM competitor, 2.8% without competitor
Description: Cells were seeded 1-2 days prior to the assay and grown until sub-confluency in 48 well plates. Prior to the assay the cell culture medium was removed and the cells were washed with phosphate buffered saline (PBS)+0.1% Bovine serum albumin (BSA). After adding the assay buffer (PBS+0.1% BSA), 37 KBq of the radiotracer [H-3]-D-Tyrosine was added immediately and was incubated with cells at 37° C. in a humidified atmosphere containing 5% CO2 for 30 min. For investigation of transporter characteristics and competitions, the cells were coincubated with 100 μM F-DOPA or compound 29 (FCBT) for 30 min to monitor radioactivity uptake. To stop tracer uptake the incubation buffer was removed after 30 min, the cells were washed and lysed with 1 M sodium hydroxide. Subsequently the amount of radioactivity in the cell lysate was determined in a scintillation counter.
as §1

[4] = In vitro plasma stability, rat plasma; assay type: in vitro ADME; conditions: 0.3 μM
Description: (§2) This investigation determines the stability of test compound in plasma of different species. […] Samples were freezed at −20° C. overnight, subsequently centrifuged for 15 minutes at 3000 rpm and the supernatant was analyzed with an Agilent 1200 HPLC-system with LCMS/MS detection.
(§3) The stability of the test compound was quantified by comparison of the remaining amount at the different time points with the amount of the 0 min sample and is expressed in % of initial concentration.

[5] = In vitro plasma stability, human plasma; assay type: in vitro ADME; conditions: for MEAN [%] / % v. 0 h: human female plasma, 0.3 μM; for % v. 0 h: single values
Description: as §2, §3

[6] = test system: rat hepatocytes; assay: In vitro metabolic stability in rat hepatocytes with calculation of hepatic in vivo blood clearance; assay type: in vitro ADME; conditions: male Wistar rat hepatocytes, 0.5x10^6 cells/ml, 1 μM test compound
Description: Hepatocytes from Han Wistar rats were isolated via a 2-step perfusion method. After perfusion, the liver was carefully removed from the rat: the liver capsule was opened and the hepatocytes were gently shaked out into a Petri dish with ice-cold WME. The resulting cell suspension was filtered through sterile gaze in 50 mL falcon tubes and centrifuged at 50×g for 3 min at room temperature. The cell pellet was resuspended in 30 mL WME and centrifuged through a Percoll® gradient for 2 times at 100×g. The hepatocytes were washed again with Williams' medium E (WME) and resuspended in medium containing 5% FCS. Cell viability was determined by trypan blue exclusion.
For the metabolic stability assay liver cells were distributed in WME containing 5% FCS to glas vials at a density of 0.5×10^6 vital cells/ml. The test compound was added to a final concentration of 1 μM. During incubation, the hepatocyte suspensions were continuously shaken and aliquots were taken at 2, 8, 16, 30, 45 and 60 min, to which equal volumes of cold methanol were immediately added. Samples were freezed at −20° C. overnight, subsequently centrifuged for 15 minutes at 3000 rpm and the supernatant was analyzed with an Agilent 1200 HPLC-system with LCMS/MS detection.
The half-life of a test compound was determined from the concentration-time plot. From the half-life the intrinsic clearances were calculated.

T1 sequence (Q01650 whole entry): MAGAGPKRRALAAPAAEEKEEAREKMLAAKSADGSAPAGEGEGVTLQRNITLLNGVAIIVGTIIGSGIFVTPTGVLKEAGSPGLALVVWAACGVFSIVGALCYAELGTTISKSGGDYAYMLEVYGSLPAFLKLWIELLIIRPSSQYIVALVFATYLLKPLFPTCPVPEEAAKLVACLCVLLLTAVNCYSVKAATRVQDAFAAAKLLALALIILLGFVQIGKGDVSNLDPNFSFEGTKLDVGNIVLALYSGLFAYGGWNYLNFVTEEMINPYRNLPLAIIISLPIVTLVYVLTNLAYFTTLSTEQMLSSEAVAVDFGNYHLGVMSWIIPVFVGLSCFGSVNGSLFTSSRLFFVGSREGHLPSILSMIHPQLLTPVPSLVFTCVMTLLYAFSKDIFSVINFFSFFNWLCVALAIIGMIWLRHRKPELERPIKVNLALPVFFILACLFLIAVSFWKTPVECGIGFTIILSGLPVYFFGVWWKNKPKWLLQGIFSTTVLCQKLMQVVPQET
T1 sequence (P08195 102-630 partner): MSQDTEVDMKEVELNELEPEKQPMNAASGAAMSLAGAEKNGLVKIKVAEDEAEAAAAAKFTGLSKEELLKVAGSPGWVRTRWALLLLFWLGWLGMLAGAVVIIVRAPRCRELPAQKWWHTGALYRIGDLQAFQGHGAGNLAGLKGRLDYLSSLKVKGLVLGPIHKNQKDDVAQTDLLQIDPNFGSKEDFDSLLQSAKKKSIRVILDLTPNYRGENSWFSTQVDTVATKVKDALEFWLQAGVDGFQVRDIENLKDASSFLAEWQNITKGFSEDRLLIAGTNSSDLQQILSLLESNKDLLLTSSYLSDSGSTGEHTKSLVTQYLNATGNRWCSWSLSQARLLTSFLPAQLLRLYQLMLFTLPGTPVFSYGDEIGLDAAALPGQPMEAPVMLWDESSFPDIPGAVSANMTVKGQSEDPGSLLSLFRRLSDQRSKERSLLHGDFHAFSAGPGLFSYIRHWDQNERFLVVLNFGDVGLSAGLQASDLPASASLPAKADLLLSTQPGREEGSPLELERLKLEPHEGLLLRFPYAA

## N[C@@H](Cc1ccc(O[C@H]2C[C@@H]([18F])C2)cc1)C(=O)O [Compound 32b, O-(cis-3-[^18F]Fluorocyclobutyl)-L-tyrosine]
[1]; A549 cells, after 30 min, 0.25 MBq in PBS, 37° C.
  maximum uptake: 5.87 % applied dose/10^6 cells
[1]; all tested tumor cells
  accumulation in tumor cells: good accumulation

## N[C@@H](Cc1cc(O)c(O)cc1[18F])C(=O)O [F-DOPA, reference compound]
[2]
  amount of D-Tyrosine which remained in the cell after 30 min (efflux): 0.11 % applied dose/100.000 cells
[3]
  uptake of the applied [H-3]-D-Tyrosine with compound present in the assay buffer: 1.8%

## N[C@@H](Cc1ccc(OCCF)cc1)C(=O)O [O-(2-[^19F]Fluoroethyl)-L-tyrosine, reference compound]
[4]; rat male plasma, 1 min incubation
  MEAN [%]: 100%
[4]; rat male plasma, 1 min incubation, single values, listed as FET
  % v. 0 h: 92% and 108%
[4]; rat male plasma, 30 min incubation
  MEAN [%]: 109%
[4]; rat male plasma, 30 min incubation, single values, listed as FET
  % v. 0 h: 110% and 109%
[4]; rat male plasma, 60 min incubation
  MEAN [%]: 119%
[4]; rat male plasma, 60 min incubation, single values, listed as FET
  % v. 0 h: 120% and 118%
[5]; 1 min incubation
  MEAN [%]: 100%
[5]; 1 min incubation, listed as FET
  % v. 0 h: 101% and 99%
[5]; 30 min incubation
  MEAN [%]: 103%
[5]; 30 min incubation, listed as FET
  % v. 0 h: 101% and 105%
[5]; 60 min incubation
  MEAN [%]: 50%
[5]; 60 min incubation, listed as FET
  % v. 0 h: 52% and 49%
[5]
  degradation in human plasma after 60 min: 50%

## N[C@@H](Cc1ccc(O[C@H]2C[C@@H](F)C2)cc1)C(=O)O.O=C(O)C(F)(F)F [Compound 29, O-(cis-3-Fluorocyclobutyl)-L-tyrosine trifluoroacetate salt]
[2]
  amount of D-Tyrosine which remained in the cell after 30 min (efflux): 0.08 % applied dose/100.000 cells
[4]; male, rat, 2 min
  MEAN [%]: 100%
[4]; male, rat, 30 min
  % v. 0 h: 124%
  MEAN [%]: 124%
[4]; male, rat, 60 min
  MEAN [%]: 133%
[3]
  uptake of the applied [H-3]-D-Tyrosine with compound present in the assay buffer: 1.1%
[6]
  CL blood, ws, hep: 0.43 L/h/kg
[5]; 2 min incubation
  MEAN [%]: 100%
[5]; 2 min incubation, trifluoroacetate salt
  % v. 0 h: 96% and 104%
[5]; 30 min incubation
  MEAN [%]: 111%
[5]; 30 min incubation, trifluoroacetate salt
  % v. 0 h: 121% and 100%
[5]; 60 min incubation
  MEAN [%]: 104%
[5]; 60 min incubation, trifluoroacetate salt
  % v. 0 h: 104% and 105%
[5]
  degradation in human plasma after 60 min: did not show any degradation
